For one compound, melting point results are on record in patent US6713476B2, “Substituted cycloalkyls as inhibitors of a beta protein production” (Dupont Pharmaceuticals Company, priority 2000, dated 2004).

Regarding `CN1C(=O)[C@@H](NC(=O)C2(CNC3CCCCC3)CCCC2)N=C(c2ccccc2)c2ccccc21`, the melting point was 82 to 86 °C.
